For series [1], the system named is MDA-MB-231. Nature of the series: In vitro cytotoxicity assay (MTT). The series is classed as cell-based, human. Particulars: Homo sapiens, MDA-MB-231, 144 h, 6 days incubation. In a few lines:
(§1)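 Absorbance at 570 nm, with 690 nm as reference, gave viability after MTT labelling for 1–4 h and dissolution in acidified isopropanol. Compound exposure lasted 6 days at 37°C following a 24 h attachment period. IC50 values are relative to untreated controls.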

Series [2] has as its system NCI-N87. Briefly: In vitro cytotoxicity assay (MTT). In kind it is cell-based, human. Particulars: Homo sapiens, NCI-N87, 144 h, 6 days incubation. In a few lines:
as §1

Series [3] relates to SKBR-3. Briefly: In vitro cytotoxicity assay (MTT). In kind it is cell-based, human. Particulars: Homo sapiens, SK-BR-3, 144 h, 6 days incubation. In a few lines:
as §1

Series [4] deals with MDA-MB-453. Briefly: In vitro cytotoxicity assay (MTT). In kind it is cell-based, human. Conditions: Homo sapiens, MDA-MB-453, 144 h, 6 days incubation. The method, boiled down: as §1
Series [5] relates to BT-474. Nature of the series: In vitro cytotoxicity assay (MTT). Conditions: Homo sapiens, BT-474, 144 h, BT-474; 6 days incubation, MTT. In kind it is cell-based, human. In a few lines:
as §1

The test system of series [6] is JIMT-1. Nature of the series: In vitro cytotoxicity assay (MTT). In kind it is cell-based, human. Particulars: Homo sapiens, 144 h, 6 days incubation. In a few lines: as §1
Series [7] relates to HCT-116. Briefly: In vitro cytotoxicity assay (MTT). In kind it is cell-based. Particulars: Homo sapiens, 144 h, 6 days incubation. The procedure: (§2) In vitro cytotoxicity of compounds of the disclosure was assessed on several cancerous human cell lines. Cells were plated in 96-well plates at an appropriate density depending on the cell line (between 1000 and 10 000 cells/well in 100µL of appropriate culture media) and incubated at 37°C for 24 hours. Serial dilutions of the tested compound previously dissolved in culture media (50µL) were added, and incubation was carried at 37°C out for 6 days. MTT (5mg/mL in PBS, 20µL, Sigma-Aldrich) was added into the wells, and incubation was continued for 1 to 4 hours at 37°C. Culture media was then carefully removed, and well content was homogeneously dissolved with acidified isopropanol. Absorbance values were measured on a microplate reader using a wavelength of 570 nm (with a reference wavelength of 690 nm). The IC50 concentration values compared to untreated control cells were determined using inhibition dose response curve fitting (GraphPad Prism 9). Exatecan mesylate (cat#HY-13631A) and CR8 (CAS# 294646-77-8; cat#HY-18340) were purchased from MedChemExpress (China).

Series [8] relates to MCF-7. Briefly: In vitro cytotoxicity assay (MTT). In kind it is cell-based. Particulars: Homo sapiens, MCF7, 144 h, 6 days incubation. The procedure: as §2
Series [9] has as its system A549. Briefly: In vitro cytotoxicity assay (MTT). The series is classed as cell-based. Particulars: Homo sapiens, 144 h, 6 days incubation. The procedure: as §2
For series [10], the system named is OE-19. Nature of the series: In vitro cytotoxicity assay (MTT). The series is classed as cell-based. Conditions: Homo sapiens, OE19, 144 h, 6 days incubation. The procedure: as §2
The subject of series [11] is Caco-2. Nature of the series: In vitro cytotoxicity assay (MTT). Particulars: Homo sapiens, 144 h, 6 days incubation. The series is classed as cell-based. The procedure: as §2
Series [12] relates to HT-29. Nature of the series: In vitro cytotoxicity assay (MTT). The series is classed as cell-based. Conditions: Homo sapiens, 144 h, 6 days incubation. The procedure:
as §2

The test system of series [13] is CycK. Briefly: CycK protein quantification by Western Blot. Conditions: JIMT-1 cells, 1µM, 2h. In kind it is cell-based, human. Here is the method: 1×10^6 JIMT-1 cells were plated in 3mL of DMEM/FBS 90:10 (v/v) in 6-well plates and incubated overnight. Cells were treated with the compound 2384 of the invention with or without the proteasome inhibitor MG-132 (MedChemExpress, Cat HY-13259) for 2h. Cells were harvested, and protein were extracted using complete RIPA buffer (RIPA buffer, 1 mM DTT, 1M NaF, 100 mM sodium orthovanadate, phosphatase inhibitor buffer and protease inhibitors) for 1 hour on ice. Lysate were centrifuged 15min at 12 000g at 4°C. and proteins were mixed with 4x Laemmli Sample Buffer (Bio-Rad), heated at 95 °C for 5 mins and separated by SDS PAGE (PROTEAN TGX Stain-Free Gels, Bio-Rad). Proteins were then transferred onto PVDF membrane (iBlot®2 PVDF stacks, Invitrogen) using the iBlot2 device (Invitrogen) and blocked with TBS buffer (Intercept® Blocking Buffer, LI-COR Biosciences). Primary antibodies were incubated overnight at 4°C and secondary antibodies (IRDye Infrared Dyes from LI-COR Biosciences) 1 hour at room temperature. Used primary antibody were: anti-CycK (cat#A301-939A, Bethyl Laboratories, dil. 1:1000) and anti-β-actin (cat#A5441, Sigma-Aldrich, dil. 1:5000). Membranes were scanned using a c500 Imaging System (Azure Biosystems) and densitometric quantification were performed using imaged software. Protein levels were normalized against β-actin.
Background: A western blot detects proteins with antibodies after separation by electrophoresis.

Series [14] in a line: in vitro. Conditions: PAMPA, pH 7.4. Background: In PAMPA a lipid-coated filter parts donor from acceptor wells.
Experimental: Stock solutions of compounds of the invention were prepared in dimethyl sulfoxide (DMSO) to a final concentration of 10 mM. Each stock solution was diluted to 50 µM in pH 7.4 Prisma HT buffer (pION) in the presence of 10% MeOH (v/v). 200 µL were added to each well of the donor plate in quintuplicate. […] The acceptor filter plate was carefully placed on top of the donor plate to form a "sandwich." The sandwich was incubated at 25°C for 5 h, at 300 rpm. UV-vis spectra of the solutions in the blank, reference, acceptor, and donor plates were measured using a Tecan Infinite 200 PRO M Nano Plus microplate reader.
For series [15], the target named is T1, BCRP (Homo sapiens, UniProt Q9UNQ0).
T1 construct: host or cells: MDCK-BCRP (Preadyport)
T1 sequence (Q9UNQ0 1-655): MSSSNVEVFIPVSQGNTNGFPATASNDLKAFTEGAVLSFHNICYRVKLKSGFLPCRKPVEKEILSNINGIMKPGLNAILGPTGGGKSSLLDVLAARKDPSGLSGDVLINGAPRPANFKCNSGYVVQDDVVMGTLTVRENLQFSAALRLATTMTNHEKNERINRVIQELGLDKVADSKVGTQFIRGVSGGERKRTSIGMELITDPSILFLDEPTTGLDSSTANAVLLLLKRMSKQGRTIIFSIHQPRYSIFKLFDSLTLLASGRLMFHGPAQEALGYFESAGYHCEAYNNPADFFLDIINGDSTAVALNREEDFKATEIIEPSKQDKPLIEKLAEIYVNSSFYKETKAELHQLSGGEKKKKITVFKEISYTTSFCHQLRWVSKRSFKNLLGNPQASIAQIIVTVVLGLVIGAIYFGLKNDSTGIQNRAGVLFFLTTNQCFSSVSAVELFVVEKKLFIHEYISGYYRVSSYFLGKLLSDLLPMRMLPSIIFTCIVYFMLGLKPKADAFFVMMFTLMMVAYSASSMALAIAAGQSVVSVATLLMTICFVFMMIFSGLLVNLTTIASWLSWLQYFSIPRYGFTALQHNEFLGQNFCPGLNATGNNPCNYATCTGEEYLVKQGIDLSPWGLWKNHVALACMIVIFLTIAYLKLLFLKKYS
Nature of the series: BCRP efflux substrate assay in MDCK-BCRP. In kind it is in vitro ADME. Particulars: dog, pH 7.4, MDCK-BCRP. Here is the method: (§3) MDR1 and BCRP efflux substrate assays were conducted in MDCK-MDR1 and MDCK-BCRP in vitro models (Preadyport™, Solvo Biotech) at Symeres (Nederland). Compound of the invention (donor well concentration of 5µM) were incubated in cell monolayer 24-transwell Preadyport system, using Preadyport recommended pH 7.4 assay buffer (donor and receiver wells). After 60 min of incubation (no shaking), samples are collected and suspended into triple volume of 66% cold acetonitrile. Samples are stored at -20°C until thawed, centrifuged and analyzed by LC-MS. Quinidine was used a positive control for the MDR1 assay, and prazosin was used as a positive control for the BCRP assay. Exatecan was used as a control, known not to be an MDR1 substrate. Residual DMSO content from compounds stock solutions was below 1% (v/v). The assay was performed in duplicate. The quantification of test compounds in donor or receptor compartment is conducted using relative LC/MS peak areas (samples of initial incubation solutions are used as a single point calibrator), without any spiked standard samples. The data is used for estimating apparent permeability (Papp) and calculation of efflux ratio.

Series [16] addresses T2, MDR1 (Homo sapiens, UniProt P08183).
T2 construct: host or cells: MDCK-MDR1 (Preadyport)
Briefly: MDR1 efflux substrate assay in MDCK-MDR1. The series is classed as in vitro ADME. Conditions: dog. Here is the method:
as §3

The test system of series [17] is KB-1. Briefly: In vitro cytotoxicity assay (MTT). In kind it is cell-based. Conditions: Homo sapiens, KB16, 144 h, 6 days incubation. Here is the method: as §2

T2 sequence (P08183 whole entry): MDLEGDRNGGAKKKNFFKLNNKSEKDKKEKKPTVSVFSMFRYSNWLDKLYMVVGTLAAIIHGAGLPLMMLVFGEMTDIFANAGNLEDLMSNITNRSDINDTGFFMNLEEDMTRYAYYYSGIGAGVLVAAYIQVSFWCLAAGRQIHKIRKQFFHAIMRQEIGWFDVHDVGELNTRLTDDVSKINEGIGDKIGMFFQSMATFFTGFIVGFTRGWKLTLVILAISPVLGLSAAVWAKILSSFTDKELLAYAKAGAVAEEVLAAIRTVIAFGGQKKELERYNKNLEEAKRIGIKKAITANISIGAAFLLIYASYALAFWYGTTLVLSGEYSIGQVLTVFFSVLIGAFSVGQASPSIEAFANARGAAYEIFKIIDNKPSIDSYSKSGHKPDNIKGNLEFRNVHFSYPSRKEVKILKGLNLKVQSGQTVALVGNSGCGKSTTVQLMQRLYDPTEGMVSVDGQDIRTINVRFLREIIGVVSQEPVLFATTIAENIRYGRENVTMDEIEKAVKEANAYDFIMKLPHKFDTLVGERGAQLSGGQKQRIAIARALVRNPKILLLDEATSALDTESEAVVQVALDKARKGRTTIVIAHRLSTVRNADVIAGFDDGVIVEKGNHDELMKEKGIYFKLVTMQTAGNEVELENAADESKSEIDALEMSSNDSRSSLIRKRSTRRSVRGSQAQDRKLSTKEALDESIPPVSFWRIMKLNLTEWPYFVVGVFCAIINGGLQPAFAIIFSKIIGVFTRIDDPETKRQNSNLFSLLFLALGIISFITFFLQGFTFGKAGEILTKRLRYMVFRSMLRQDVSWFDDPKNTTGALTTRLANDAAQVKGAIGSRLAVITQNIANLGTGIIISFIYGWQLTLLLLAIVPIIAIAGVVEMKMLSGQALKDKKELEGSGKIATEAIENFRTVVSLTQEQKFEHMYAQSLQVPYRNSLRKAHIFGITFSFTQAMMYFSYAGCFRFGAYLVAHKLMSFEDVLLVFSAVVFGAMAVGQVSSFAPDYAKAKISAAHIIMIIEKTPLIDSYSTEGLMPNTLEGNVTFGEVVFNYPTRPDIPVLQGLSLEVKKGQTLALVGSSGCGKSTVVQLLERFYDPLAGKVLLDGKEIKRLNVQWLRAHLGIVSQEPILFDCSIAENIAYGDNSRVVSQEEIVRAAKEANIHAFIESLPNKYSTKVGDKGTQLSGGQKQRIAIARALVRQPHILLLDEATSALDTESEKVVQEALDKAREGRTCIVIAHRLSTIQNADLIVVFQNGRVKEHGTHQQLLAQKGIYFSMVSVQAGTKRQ

In the case of `CC(C)c1cnn2c(NCc3ccc(-c4ccccn4)cc3)nc(NC3CCNCC3)nc12` [Compound 2428], the IC50 (in general, the midpoint of a concentration-inhibition curve) in [1] came to 2.31 nM; in [2], 4.5 nM; in series [3], 1.94 nM; in series [4], 3.11 nM; in series [5], 3.73 nM; in series [6], 0.92 nM. For the same compound, the IC50 in series [7] stood at 5.31 nM; in [8] it was 9.12 nM; in [9], 2.22 nM; in [10] it was 7.84 nM; in series [11] it was 24.2 nM; in series [12] it was 0.83 nM.

Regarding `CN(C)C/C=C/C(=O)Nc1ccc(C(=O)N2CCC[C@@H](Nc3ncc(Cl)c(-c4c[nH]c5ccccc45)n3)C2)cc1` [THZ-531, reference compound], the CycK protein content entry in series [13] is given as “no impact on CycK protein content”.

Regarding `N[C@H]1CCCC[C@@H]1Nc1nc(NCc2ccc(-c3ccccn3)cc2)n2ncc(Br)c2n1` [Compound 2671], in [14], the Papp (in general, the rate of passage across a membrane or cell layer, normalised by area and donor concentration) at 5 h, 50 µM is 176 ×10⁻⁶ cm/s. Besides, the efflux ratio at 60 min, 5 µM in series [15] (read-out: Efflux ratio B/A) turned out to be 4.54; in [16] (MDCK-MDR1, pH 7.4, read-out: Efflux ratio B/A), 43.7. Further, the Papp A→B (usually the apparent permeability from the apical to the basolateral side of a cell layer) at 60 min, 5 µM stood at 10.1 ×10⁻⁶ cm/s in series [15] (5µM, 60 min, read-out: Papp A (donor) to B (acceptor)) and 0.99 ×10⁻⁶ cm/s in series [16] (MDCK-MDR1, 5µM, 60 min, pH 7.4, read-out: Papp A (donor) to B (acceptor)). The Papp B→A (commonly the apparent permeability from the basolateral to the apical side of a cell layer) at 60 min, 5 µM worked out at 46 ×10⁻⁶ cm/s in series [15] (5µM, 60 min, read-out: Papp B (acceptor) to A (donor)) and 43.2 ×10⁻⁶ cm/s in series [16] (MDCK-MDR1, 5µM, 60 min, pH 7.4, read-out: Papp B (acceptor) to A (donor)). Also, the IC50 in [1] worked out at 1.74 nM; in [2] it was 1.47 nM; in [3] it was 0.42 nM; in [4], 2.22 nM; in series [5] it was 3.34 nM; in [17] it was 7.6 nM.

In the case of `CC(C)c1cnn2c(NCc3ccc(-c4ccccn4)cc3)nc(N[C@H]3CC[C@H](N)CC3)nc12` [Compound 2420, N2-((1r,4r)-4-aminocyclohexyl)-8-isopropyl-N4-(4-(pyridin-2-yl)benzyl)pyrazolo[1,5-a][1,3,5]triazine-2,4-diamine], the IC50 in [1] came to 0.7 nM; in series [2], 4.93 nM; in series [3], 3.25 nM; in [4] it was 2.73 nM; in series [5], 3.41 nM; in series [6] it was 0.61 nM. Moreover, the IC50 in series [7] is 4.4 nM; in [8] it was 7.78 nM; in series [9], 1.99 nM; in series [10], 6.91 nM; in series [11], 56.1 nM; in series [12], 1.74 nM.

Source of the values: patent publication EP4512427A1, “ANTIBODY-DRUG CONJUGATES BASED ON MOLECULAR GLUE DEGRADERS AND USES THEREOF” (Mablink Bioscience, priority 2023, dated 2025).
